In a compilation of properties of binary mixtures (doi:10.1016/j.fluid.2006.05.028) one finds electrical conductivity data, which are given here for three compounds.

A short description of the series: xn = mol fraction of the nth substance listed. Conditions: 298.15 K, 101.3 kPa.

`O` + CCOS(=O)(=O)[O-].CC[n+]1ccn(C)c1 registered an electrical conductivity (x1 = 1) of 0.0026 S/m.

With `CCOS(=O)(=O)[O-].CC[n+]1ccn(C)c1` + O, the electrical conductivity (x1 = 0.004) came to 1.35 S/m; the electrical conductivity (x1 = 0.0084) stood at 2.11 S/m; the electrical conductivity (x1 = 0.0133) turned out to be 2.76 S/m; the electrical conductivity (x2 = 0.4084) was 1.3 S/m; the electrical conductivity (x2 = 0.5931) was 2.03 S/m; the electrical conductivity (x2 = 0.6983) was 2.55 S/m. Moreover, the electrical conductivity is, setting by setting: (x2 = 0.7663) 3.03 S/m; (x2 = 0.8139) 3.54 S/m; (x2 = 0.876) 4.14 S/m; (x2 = 0.8974) 4.31 S/m; (x2 = 0.9148) 4.41 S/m; (x2 = 0.9413) 4.43 S/m. The electrical conductivity is, setting by setting: (x2 = 0.9516) 4.33 S/m; (x2 = 0.9606) 4.16 S/m.

Under “x2 = 0.65”, `[Br][Al]([Br])[Br]` + CC[n+]1ccccc1.[Br-] returned an electrical conductivity of 0.292 S/m.
